{
  "source": "patent US20230277710A1",
  "about": "“SYSTEM AND DEVICE FOR SANITIZING THE AIR” (The Procter & Gamble Company, priority 2022, published 2023)",
  "tested_on": "Staphylococcus aureus",
  "experiment": "Microorganism kill against airborne Staphylococcus aureus, pre and post filtration",
  "type": "cell-based",
  "conditions": "TEG pipetted onto hotplate @ 250° C.",
  "data": [
    {"smiles": "OCCOCCOCCO", "note": "[TEG, triethylene glycol]", "values": [
      {"measurement": "Microorganism kill against Staphylococcus aureus (log10 reduction)", "setting": "Post-Filtration", "value": 3, "unit": "log10 reduction"},
      {"measurement": "Microorganism kill against Staphylococcus aureus, time to 3 log10 reduction", "setting": "Post-Filtration", "value": "in 33 min"},
      {"measurement": "Microorganism kill against Staphylococcus aureus (log10 reduction)", "setting": "Pre-Filtration", "value": 3, "unit": "log10 reduction"},
      {"measurement": "Microorganism kill against Staphylococcus aureus, time to 3 log10 reduction", "setting": "Pre-Filtration", "value": "in 18.2 min"}
    ]}
  ]
}
